Literature values as cited in patent US10543503B1, “Methods of delivery of encapsulated perfluorocarbon taggants” (Copilot Ventures Fund III LLC, priority 2011, dated 2020).

Key:
[1] = system: cytochrome P-450 IA1 and IA1; details: rats, following PFD treatment; enzymes induced by 3-methylcholanthrene-type inducers
cytochrome P450 IV = details: rats, following PFD treatment; enzyme induced by fatty acids and perfluoronated fatty acids
[2] = system: cytochrome P-450 IIA1 and IIA2 (a.k.a. cytochrome P450b and cytochrome P450e); details: rats, following PFD treatment
cytochrome P-450 = details: PFD given to rats; hepatic metabolizing enzymes
[3] = system: benzphetamine-N-demethylase; details: rats, following PFD treatment
aldrin-epoxidase = details: rats, following PFD treatment

FC1(F)C(F)(F)C(F)(F)C2(F)C(F)(F)C(F)(F)C(F)(F)C(F)(F)C2(F)C1(F)F (stereo not drawn) [PFD, perfluorodecalin]
activities of cytochrome P-450 IA1 and IA1 [1]: unaffected
activity of cytochrome P450 IV (cytochrome P450 IV): unaffected
increase of activities of cytochrome P-450 IIA1 and IIA2 [2]: approximately two-fold
induction of cytochrome P-450 (cytochrome P-450): induce cytochrome P-450 in a manner similar to phenobarbital
activity of benzphetamine-N-demethylase [3]: increased
activity of aldrin-epoxidase (aldrin-epoxidase): increased
